These results are taken from PMC8552062, “Contributions of UDP-Glucuronosyltransferases to Human Hepatic and Intestinal Metabolism of Ticagrelor and Inhibition of UGTs and Cytochrome P450 Enzymes by Ticagrelor and its Glucuronidated Metabolite” (Frontiers in Pharmacology, 2021).

By IC50 is commonly meant the concentration that gives 50% inhibition. Read a low IC50 as higher potency. In general, inhibition refers to the relative decrease from the control value, in per cent. A high value points to a strong effect.

Common to all, as to assay type: in vitro ADME
For one series, the target named is T1, UGT2B7 (Homo sapiens, UniProt P16662).
T1 sequence (P16662 24-529): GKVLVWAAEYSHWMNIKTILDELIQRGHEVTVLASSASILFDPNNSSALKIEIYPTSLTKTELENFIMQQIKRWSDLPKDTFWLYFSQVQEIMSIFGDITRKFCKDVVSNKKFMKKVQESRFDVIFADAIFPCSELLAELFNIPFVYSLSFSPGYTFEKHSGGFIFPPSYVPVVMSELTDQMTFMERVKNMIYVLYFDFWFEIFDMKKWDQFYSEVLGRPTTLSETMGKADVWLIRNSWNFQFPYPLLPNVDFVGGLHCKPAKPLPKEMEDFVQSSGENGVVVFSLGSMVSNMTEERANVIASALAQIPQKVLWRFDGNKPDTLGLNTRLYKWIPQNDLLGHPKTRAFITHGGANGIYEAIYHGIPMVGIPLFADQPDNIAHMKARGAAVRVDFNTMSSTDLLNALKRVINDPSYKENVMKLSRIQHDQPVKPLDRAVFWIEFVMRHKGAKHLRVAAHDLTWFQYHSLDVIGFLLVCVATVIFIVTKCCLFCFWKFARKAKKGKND
Nature of the series: UGT2B7 inhibition in HLM (3′-azide-3′-deoxythymidine glucuronidation). More on the design: tissue XenoTech LLC; host or cells: pooled human liver microsomes. To be noted: for IC50: UGT2B7, 3′-azide-3′-deoxythymidine β-D-glucuronide formation in HLM; for inhibition at 100 µM: human, human liver microsomes (HLM), probe 3′-azide-3′-deoxythymidine, HLM, 100 μM test compound. On the procedure: (§1) To assess drug-drug interactions (DDIs) potential caused by ticagrelor and ticagrelor-O-Glu through the inhibition of the major human UGTs enzymes, selective UGT probe substrates were co-incubated with ticagrelor or ticagrelor-O-Glu in HLM. The formation of metabolites, SN-38 glucuronide, chenodeoxycholic acid 24-acyl-β-D-glucuronide, trifluoperazine N-glucuronide, N-Acetyl serotonin glucuronide, mycophenolic acid glucuronide and 3′-azide-3′-deoxythymidine β-D-glucuronide, which could reflect the enzyme activities of UGT1A1, UGT1A3, UGT1A4, UGT1A6, UGT1A9 and UGT2B7, respectively, were quantified using LC-MS/MS. Three different concentrations of ticagrelor or ticagrelor-O-Glu (1, 10 and 100 μM) were added to the incubation system in the presence of selective UGT probe substrates (SN-38, chenodeoxycholic acid, trifluoperazine, N-Acetyl serotonin, mycophenolic acid and 3′-azide-3′-deoxythymidine), respectively. The assays were performed as described above. The control was treated with a vehicle solvent only. A triple determination was performed.
(§2) The percent inhibition relative to the control was calculated to indicate the UGTs or CYPs inhibition. For inhibition exceeding 50% of the control activity, nonlinear regression analysis was used to estimate the IC50 values using the GraphPad Prism 6 (GraphPad Software Inc., CA, United States).
For orientation: Liver microsomes are vesicles of endoplasmic reticulum, rich in cytochrome P450 enzymes.

Another series addresses T2, UGT1A6 (Homo sapiens, UniProt P19224).
T2 sequence (P19224 27-532): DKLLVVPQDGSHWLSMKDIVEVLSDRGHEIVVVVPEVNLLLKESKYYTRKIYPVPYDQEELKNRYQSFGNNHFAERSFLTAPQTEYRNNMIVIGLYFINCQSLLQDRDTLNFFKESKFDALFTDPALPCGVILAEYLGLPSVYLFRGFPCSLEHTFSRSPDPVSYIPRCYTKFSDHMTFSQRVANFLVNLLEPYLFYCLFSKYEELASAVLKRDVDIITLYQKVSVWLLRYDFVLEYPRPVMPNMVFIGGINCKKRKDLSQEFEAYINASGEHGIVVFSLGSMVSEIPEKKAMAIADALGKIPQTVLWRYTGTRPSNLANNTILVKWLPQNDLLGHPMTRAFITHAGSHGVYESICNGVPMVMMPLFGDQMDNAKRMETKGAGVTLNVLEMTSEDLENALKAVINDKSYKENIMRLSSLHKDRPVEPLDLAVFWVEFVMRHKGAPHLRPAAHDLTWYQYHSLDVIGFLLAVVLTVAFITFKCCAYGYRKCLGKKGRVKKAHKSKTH
Briefly: UGT1A6 inhibition in HLM (N-Acetyl serotonin glucuronidation). On the set-up: tissue XenoTech LLC; host or cells: pooled human liver microsomes. To be noted: for IC50: UGT1A6, N-Acetyl serotonin glucuronide formation in HLM; for inhibition at 100 µM: human, human liver microsomes (HLM), probe N-Acetyl serotonin, HLM, 100 μM test compound. On the procedure:
as §1, §2

Series [1] has as its target T3, recombinant human UGT1A10 (Homo sapiens, UniProt Q9HAW8).
T3 construct: purchased BD Gentest; host or cells: baculovirus-infected insect cells
Nature of the series: Ticagrelor glucuronidation screen, recombinant human UGT1A10. Particulars: 10 μM ticagrelor. On the procedure: Ticagrelor glucuronidation was investigated in an in vitro incubation system by using HLM, HIM, and recombinant human UGTs. The incubation system consisted of enzyme sources (HLM, HIM, or human recombinant UGTs), various concentrations of ticagrelor (dissolved in 50% methanol, 1% v/v, 1, 2, 5, 10, 20, 50, 100, 200, 500 μM of final concentration), alamethicin (50 μg/mg protein), 5 mM MgCl2, 100 mM tris-HCL buffer (pH 7.4), and 5 mM UDPGA in a total volume of 100 μl. Alamethicin is a pore-forming polypeptide used to activate UGTs in HLM and HIM ([Fisher et al., 2000]). Preliminary studies were conducted to determine the optimal protein concentrations and incubation times. Linear conditions of ticagrelor-O-Glu formation from ticagrelor, i.e., HLM, 0.2 mg of protein/ml and 60 min, HIM, 0.2 mg of protein/ml and 60 min, and recombinant human UGTs, 0.2 mg of protein/ml and 60 min were selected. The incubation mixture without UDPGA was placed on ice for 15 min to activate UGT by alamethicin. After pre-incubation for 5 min at 37°C, the reactions were started by the addition of UDPGA. After another 60 min of incubation at 37°C, the reaction was terminated by adding 100 μl of acetonitrile containing internal standard (diazepam). The mixture vortexed for 2 min and then centrifuged at 14,000 rpm for 10 min at 4°C. […]

Where only a bound is given, the exact number is not on record here.

T3 sequence (Q9HAW8 26-530): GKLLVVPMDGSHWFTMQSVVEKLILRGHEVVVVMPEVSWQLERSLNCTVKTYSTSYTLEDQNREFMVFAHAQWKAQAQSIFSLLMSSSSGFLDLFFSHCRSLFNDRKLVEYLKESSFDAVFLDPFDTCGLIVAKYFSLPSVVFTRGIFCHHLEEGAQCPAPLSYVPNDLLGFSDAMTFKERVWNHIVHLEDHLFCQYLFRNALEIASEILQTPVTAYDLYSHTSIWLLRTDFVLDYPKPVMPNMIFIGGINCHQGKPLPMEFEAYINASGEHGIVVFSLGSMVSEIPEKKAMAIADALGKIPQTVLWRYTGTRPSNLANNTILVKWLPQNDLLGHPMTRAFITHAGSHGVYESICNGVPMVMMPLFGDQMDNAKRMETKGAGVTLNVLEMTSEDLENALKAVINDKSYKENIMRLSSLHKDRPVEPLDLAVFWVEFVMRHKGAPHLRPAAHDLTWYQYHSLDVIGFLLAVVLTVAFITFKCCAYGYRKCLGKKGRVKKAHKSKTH

With `CCCSc1nc(N[C@@H]2C[C@H]2c2ccc(F)c(F)c2)c2nnn([C@@H]3C[C@H](OCCO[C@@H]4O[C@H](C(=O)O)[C@@H](O)[C@H](O)[C@H]4O)[C@@H](O)[C@H]3O)c2n1` [Ticagrelor-O-Glu, ticagrelor-O-glucuronide], the IC50 at UGT2B7 and on UGT1A6 was over 100 µM each time. Besides, the inhibition at 100 µM on UGT2B7 worked out at 30.7%; against UGT1A6, 28.5%.

Regarding `CCCSc1nc(N[C@@H]2C[C@H]2c2ccc(F)c(F)c2)c2nnn([C@@H]3C[C@H](OCCO)[C@@H](O)[C@H]3O)c2n1` [Ticagrelor], at UGT2B7, the IC50 was over 100 µM and 100 µM produced 39% inhibition. Moreover, the “glucuronidation activity for ticagrelor” value in series [1] is “no glucuronidation activities”. In addition, at UGT1A6, the half-inhibitory concentration (IC50) was over 100 µM and 100 µM produced 12.7% inhibition.
